Consider four compounds from ChEMBL document CHEMBL1149494, “Synthesis and structure-activity relationships of retro bis-aminopyrrolidine urea (rAPU) derived small-molecule antagonists of the melanin-concentrating hormone receptor-1 (MCH-R1). Part 2” (Bioorg Med Chem Lett, 2006).

Common to all, as to type: ADME, organism-based
The species entered for series [1] is Rattus norvegicus. In words: Drug level in rat brain. The following applies: in vivo.
The nature of series [2]: Ratio of drug level in rat brain against plasma. The following applies: brain and plasma, read-out: BPR.
Series [3] is filed under the species Rattus norvegicus. Kind of series: Drug level in rat plasma. The note with it: in vivo.

Turning to `CCc1ccc(-c2ccc(C(=O)N(C)[C@H]3CCN(C(=O)N4CC[C@@H](N5CCCCC5)C4)C3)cc2)cc1`, the Drug uptake in the series listed under Rattus norvegicus [1] was 38.3 ng/g; in the series filed under Rattus norvegicus [3], 6.2 ng/g. In series [2], the Kp was 6.5.

In the case of `CCc1ccc(-c2ccc(C(=O)N(C)[C@H]3CCN(C(=O)N4CC[C@@H](NC5CCOCC5)C4)C3)s2)cc1`, the Drug uptake in the series filed under Rattus norvegicus [1] was 17.3 ng/g; in the series filed under Rattus norvegicus [3], 30.5 ng/g. Moreover, the Kp in series [2] came out at 0.6.

Regarding `CCc1ccc(-c2ccc(C(=O)N(C)[C@H]3CCN(C(=O)N4CC[C@@H](N(C)C5CCOCC5)C4)C3)s2)cc1`, the Drug uptake came out at 21.8 ng/g in the series filed under Rattus norvegicus [1] and 6.7 ng/g in the series filed under Rattus norvegicus [3]. Further, the Kp in series [2] amounted to 3.4.

`CCc1ccc(-c2ccc(C(=O)N(C)[C@H]3CCN(C(=O)N4CC[C@@H](NC5CCOCC5)C4)C3)cc2)cc1`: the Drug uptake stood at 5.1 ng/g in the series filed under Rattus norvegicus [1] and 14.5 ng/g in the series filed under Rattus norvegicus [3]. The Kp in series [2] came to 0.4.
